This note sets out measurements from PMC8619068, “Transformation of Tetracycline by Manganese Peroxidase from Phanerochaete chrysosporium” (Molecules, 2021).

The assay has as its system T1, manganese peroxidase (MnP).
T1 construct: gene MNP1; native secreted enzyme purified from culture fluid (ultrafiltration, DEAE, Sephadex G-75); single band on SDS-PAGE
The assay is described as follows: HPLC-UV ([…] nm) of residual tetracycline; non-linear Michaelis-Menten fit. In kind it is biochemical, Phanerodontia chrysosporium. As to conditions: MnSO4 0.1 mmol/L, H2O2 0.2 mmol/L, MnP 40 U/L, tartrate buffer 0.05 mol/L pH 4.5, 37 °C (general removal assay); oxidation mediated by Mn3+.

As to `CN(C)[C@@H]1C(=O)C(C(N)=O)=C(O)[C@@]2(O)C(=O)C3=C(O)c4c(O)cccc4[C@@](C)(O)[C@H]3C[C@@H]12` [TC, tetracycline], the Km is 238.23 mg/L.

Usually Km stands for the substrate concentration at which the rate is half of its maximum.
